Source: patent US10072017B2, “Compounds and methods for the treatment of cystic fibrosis” (Flatley Discovery Lab, LLC, priority 2015, dated 2018)

Target: T1, CFTR (Homo sapiens, UniProt P13569, DEL508-508)
T1 construct: Primary CF airway epithelial cells were obtained from the UNC Cystic Fibrosis Tissue Procurement and Cell Culture Core; host or cells: primary CF airway epithelial cells
Test: Equivalent current assay in Primary CF airway epithelial cells (NAUC)
Type: cell-based
Conditions: 24 h, normalized to VX809 (3 μM) positive control; for Nauc @ 3 μM: 3 μM test compound; for Nauc @ 10 μM: 10 μM test compound
Procedure: Primary CF airway epithelial cells were obtained from the UNC Cystic Fibrosis Tissue Procurement and Cell Culture Core. The cells are grown at 37° C. in a Heracell 150i incubator using growth media (BEGM, Fischer). Cells were then transferred to differentiation media (ALI, UNC) for a minimum of 4 weeks on coated Costar snapwells. Two days before the Ussing assay the mucus on the apical surface of the cells was aspirated after incubating with 200 μL of differentiation Media for at least thirty (30) minutes. One day before the Ussing assay test compounds were added to the basolateral surface of the cells at various test concentrations dissolved in DMSO. Duplicate wells were prepared giving a n=3 or n=4 protocol.
Cells were treated for 24 hours with various combinations and concentrations of the test articles, reference standard (3 μM VX809, positive control). Compounds stock solutions were prepared in DMSO and diluted 1/1000 into ALI media to their final assay concentration. Cells were treated with combination solutions (2 mL of each dilution) and incubated at 37° C. for 24 h.
For the equivalent current assay, cells on four Transwell (24-well) plates were treated. Each Transwell plate was filled with 200 μl of HBS on the apical surface and 2 ml on the basolateral surface. Plates were placed horizontally in a heated mount at 37° C., and equilibrated for several minutes. Resting current was measured for 15 min and then blocked by the apical addition of 5 μM benzamil. After 20 min, 10 μM forskolin and 1 μM VX770 were added to both the apical and basolateral side to stimulate CFTR. An increase in chloride current is seen as an upward deflection of the trace. After another 30 min, CFTR-172 (a CFTR inhibitor, 20 μM) and/or bumetanide (20 uM) was added to block CFTR mediated chloride current.
The raw data, current vs. time for the Ussing chamber (sampling interval: 10 s) and voltage vs. time and resistance vs. time for the equivalent current assay (sampling interval: 5 minutes) were transferred to Excel (Microsoft Office Professional, version 14.0.7106.5003) for analysis. CFTR specific current was measured as the average amplitude of the increase in current elicited upon addition forskolin and ending upon addition of the CFTR channel specific blocker CFTR-172. This average is equivalent to the sum of the average forskolin activated and the average VX770-potentiated currents. The average current measured in vehicle (0.1% DMSO) treated cells, Iv, was subtracted from the current for the test article, ITA, or from the corrector reference standard VX809 (3 uM ISTD. For replicate measurements, the average vehicle subtracted response for the test article, was normalized to the average vehicle subtracted inhibitor response of the reference corrector VX809 (3 μM). INSC=(ITA−IV)(ave)/(ISTD−IV)(ave) (Equation 1)
A second endpoint, for the equivalent current assay, evaluated was NAUC, the normalized area under the curve (AUC) measuring the response after addition of forskolin and VX770 to the time point right before the addition of the CFTR inhibitor. The AUC is effectively the average response multiplied by the duration of the response. The AUC of the test article, AUCTA was then corrected by subtracting the average vehicle response, AUCV,ave over the same time range, and normalized as for the inhibitor-sensitive current to the difference of the corrector reference standard VX809 (3 μM VX809r,ave and the vehicle response: NAUCTA=[AUCTA−AUCV,ave]/[AUCVx809r,ave−AUCV,ave] (Equation 2).
The normalized value for DMSO is 0.0 and for VX-809 alone is 1.0. Combinations of compounds with VX-809 that give normalized values greater than 1.0 show activity in the combination assay. A value of 2 means the test compound doubles the effect to VX-809 alone.
Experiments were run with a minimum of n=4 replicates per concentration. […]

T1 sequence (P13569 with tags, fused parts or gaps DEL508-508): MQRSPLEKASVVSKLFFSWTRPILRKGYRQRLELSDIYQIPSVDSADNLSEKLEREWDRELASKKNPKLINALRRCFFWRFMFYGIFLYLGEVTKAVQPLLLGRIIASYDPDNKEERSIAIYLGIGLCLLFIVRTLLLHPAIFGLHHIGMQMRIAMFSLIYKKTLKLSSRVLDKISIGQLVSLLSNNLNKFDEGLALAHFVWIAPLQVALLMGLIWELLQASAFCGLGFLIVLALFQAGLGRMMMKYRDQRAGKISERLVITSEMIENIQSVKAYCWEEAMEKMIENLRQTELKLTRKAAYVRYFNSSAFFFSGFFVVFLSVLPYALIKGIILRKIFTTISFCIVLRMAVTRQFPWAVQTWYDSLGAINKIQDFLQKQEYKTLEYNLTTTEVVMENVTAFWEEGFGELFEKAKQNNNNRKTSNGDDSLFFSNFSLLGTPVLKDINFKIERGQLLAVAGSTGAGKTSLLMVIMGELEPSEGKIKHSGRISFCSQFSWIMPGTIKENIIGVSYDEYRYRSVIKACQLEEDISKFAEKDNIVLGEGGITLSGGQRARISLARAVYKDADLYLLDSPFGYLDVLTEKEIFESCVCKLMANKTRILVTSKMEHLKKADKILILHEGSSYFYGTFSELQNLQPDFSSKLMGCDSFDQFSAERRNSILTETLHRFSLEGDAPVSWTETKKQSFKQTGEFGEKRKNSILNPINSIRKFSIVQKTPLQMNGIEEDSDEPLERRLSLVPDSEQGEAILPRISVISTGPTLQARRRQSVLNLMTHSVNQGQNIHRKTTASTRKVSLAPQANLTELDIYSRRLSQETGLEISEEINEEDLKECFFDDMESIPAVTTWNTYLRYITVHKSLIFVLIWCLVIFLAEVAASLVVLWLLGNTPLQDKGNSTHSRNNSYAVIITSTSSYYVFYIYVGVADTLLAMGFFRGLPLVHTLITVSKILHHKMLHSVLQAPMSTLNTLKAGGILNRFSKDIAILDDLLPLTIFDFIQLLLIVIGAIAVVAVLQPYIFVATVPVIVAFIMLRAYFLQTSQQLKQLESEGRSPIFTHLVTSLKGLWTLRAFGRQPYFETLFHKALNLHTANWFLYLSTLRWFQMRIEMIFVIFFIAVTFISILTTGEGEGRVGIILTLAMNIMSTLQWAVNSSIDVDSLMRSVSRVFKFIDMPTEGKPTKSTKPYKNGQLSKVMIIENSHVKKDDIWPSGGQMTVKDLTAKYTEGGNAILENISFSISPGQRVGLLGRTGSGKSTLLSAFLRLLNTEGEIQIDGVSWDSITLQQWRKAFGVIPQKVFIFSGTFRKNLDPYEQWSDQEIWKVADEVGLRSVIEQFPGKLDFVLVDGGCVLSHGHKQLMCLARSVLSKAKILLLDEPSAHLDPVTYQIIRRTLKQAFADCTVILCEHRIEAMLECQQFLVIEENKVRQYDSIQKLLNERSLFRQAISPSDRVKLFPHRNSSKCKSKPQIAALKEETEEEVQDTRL

| SMILES | Nauc @ 3 μM | Nauc @ 10 μM |
| --- | --- | --- |
| O=C1[C@H]2[C@H]3CCCN3[C@]3(C(=O)Nc4c(Cl)cc(Cl)cc43)[C@H]2C(=O)N1c1cc(Cl)cc(Cl)c1 (single isomer, unassigned) [Example 1] | +++ (NAUC “+++” refers to an observed NAUC >170% of positive control) | +++ (NAUC “+++” refers to an observed NAUC >170% of positive control) |
| O=C1[C@H]2[C@H]3C[C@H](O)CN3[C@]3(C(=O)Nc4c(Cl)cc(Cl)cc43)[C@H]2C(=O)N1c1cc(Cl)cc(Cl)c1 (single isomer, unassigned) [Example 2] | +++ (NAUC “+++” refers to an observed NAUC >170% of positive control) | +++ (NAUC “+++” refers to an observed NAUC >170% of positive control) |
| O=C1C2C3CCCN3C3(C(=O)Nc4c(Cl)cc(Cl)cc43)C2C(=O)N1c1cc(Cl)cc(Cl)n1 (single isomer, unassigned) [Example 3, 5,7-Dichloro-2′-(4,6-dichloropyridin-2-yl)-3a′,6′,7′,8′,8a′,8b′-hexahydro-1′H-spiro[indoline-3,4′-pyrrolo[3,4-a]pyrrolizine]-1′,2,3′(2′H)-trione] | +++ (NAUC “+++” refers to an observed NAUC >170% of positive control) | +++ (NAUC “+++” refers to an observed NAUC >170% of positive control) |
| COc1c(Cl)cc(N2C(=O)C3C4CC(C)(C)CN4C4(C(=O)Nc5c(Cl)cc(Cl)cc54)C3C2=O)cc1Cl (single isomer, unassigned) [Example 4, 5,7-dichloro-2′-(3,5-dichloro-4-methoxyphenyl)-7′,7′-dimethyl-3a′,6′,7′,8′,8a′,8b′-hexahydro-1′H-spiro[indoline-3,4′-pyrrolo[3,4-a]pyrrolizine]-1′,2,3′(2′H)-trione] | +++ (NAUC “+++” refers to an observed NAUC >170% of positive control) | ++ (NAUC “++” refers to an observed NAUC 170-140% of positive control) |
| [2H]C12C(=O)N(c3cc(Cl)cc(Cl)c3)C(=O)C1([2H])C1(C(=O)Nc3c(Cl)cc(Cl)cc31)N1C[C@@H](O)CC12 (single isomer, unassigned) [Example 5, (7′S)-5,7-Dichloro-2′-(3,5-dichlorophenyl)-7′-hydroxy-3a′,6′,7′,8′,8a′,8b′-hexahydro-1′H-spiro[indoline-3,4′-pyrrolo[3,4-a]pyrrolizine]-1′,2,3′(2′H)-trione-3a′,8b′-d2] | +++ (NAUC “+++” refers to an observed NAUC >170% of positive control) | +++ (NAUC “+++” refers to an observed NAUC >170% of positive control) |
| COc1cc(Cl)cc(N2C(=O)C3C4C[C@H](F)CN4C4(C(=O)Nc5c(Cl)cc(Cl)cc54)C3C2=O)c1 (single isomer, unassigned) [Example 6, (7′S)-5,7-Dichloro-2′-(3-chloro-5-methoxyphenyl)-7′-fluoro-3a′,6′,7′,8′,8a′,8b′-hexahydro-1′H-spiro[indoline-3,4′-pyrrolo[3,4-a]pyrrolizine]-1′,2,3′(2′H)-trione] | +++ (NAUC “+++” refers to an observed NAUC >170% of positive control) | +++ (NAUC “+++” refers to an observed NAUC >170% of positive control) |
| O=C1[C@H]2[C@@H](C(=O)N1c1cc(Cl)cc(Cl)c1)[C@]1(C(=O)Nc3c(Cl)cc(Cl)cc31)N1CCC[C@@H]21 (single isomer, unassigned) [Example 13] | +++ (NAUC “+++” refers to an observed NAUC >170% of positive control) | +++ (NAUC “+++” refers to an observed NAUC >170% of positive control) |
| O=C1C2C3CCCN3C3(C(=O)Nc4c(Cl)cc(Cl)cc43)C2C(=O)N1c1cccc(C(F)(F)F)c1 (single isomer, unassigned) [Example 24] | +++ (NAUC “+++” refers to an observed NAUC >170% of positive control) | +++ (NAUC “+++” refers to an observed NAUC >170% of positive control) |
| O=C1C2C3C[C@H](O)CN3C3(C(=O)Nc4c(Cl)cc(Cl)cc43)C2C(=O)N1c1cc(Cl)cc(Cl)c1 (single isomer, unassigned) [Example 46] | ++ (NAUC “++” refers to an observed NAUC 170-140% of positive control) | + (NAUC “+” refers to an observed NAUC <140% of positive control) |
| O=C1C2C3C[C@H](O)CN3C3(C(=O)Nc4ccc(C(F)(F)F)cc43)C2C(=O)N1c1cc(Cl)cc(Cl)c1 (single isomer, unassigned) [Example 50] | ++ (NAUC “++” refers to an observed NAUC 170-140% of positive control) | + (NAUC “+” refers to an observed NAUC <140% of positive control) |
| O=C1C2C3C[C@H](O)CN3C3(C(=O)Nc4c(Br)cc(Br)cc43)C2C(=O)N1c1cc(Cl)cc(Cl)c1 (single isomer, unassigned) [Example 51] | +++ (NAUC “+++” refers to an observed NAUC >170% of positive control) | ++ (NAUC “++” refers to an observed NAUC 170-140% of positive control) |
| CC12C(=O)N(c3cc(Cl)cc(Cl)c3)C(=O)C1C1(C(=O)Nc3c(Cl)cc(Cl)cc31)N1CCCC12 (single isomer, unassigned) [Example 54] | ++ (NAUC “++” refers to an observed NAUC 170-140% of positive control) | + (NAUC “+” refers to an observed NAUC <140% of positive control) |
| O=C1C2C3C[C@H](O)CN3C3(C(=O)Nc4c(Cl)cc(Cl)cc43)C2C(=O)N1c1cc(Br)cc(Br)c1 (single isomer, unassigned) [Example 56] | ++ (NAUC “++” refers to an observed NAUC 170-140% of positive control) | +++ (NAUC “+++” refers to an observed NAUC >170% of positive control) |
| O=C1C2C3C[C@H](NS(=O)(=O)c4ccccc4)CN3C3(C(=O)Nc4c(Cl)cc(Cl)cc43)C2C(=O)N1c1cc(Cl)cc(Cl)c1 (single isomer, unassigned) [Example 58] | ++ (NAUC “++” refers to an observed NAUC 170-140% of positive control) | +++ (NAUC “+++” refers to an observed NAUC >170% of positive control) |
| O=C1C2C3C[C@H](O)CN3C3(C(=O)Nc4ccc(C(F)(F)F)cc43)C2C(=O)N1c1cc(Cl)cc(Cl)c1 (single isomer, unassigned) [Example 61] | +++ (NAUC “+++” refers to an observed NAUC >170% of positive control) | +++ (NAUC “+++” refers to an observed NAUC >170% of positive control) |
| O=C1C2C3C[C@H](O)CN3C3(C(=O)Nc4c(Cl)cc(Cl)cc43)C2C(=O)N1c1cc(C(F)(F)F)cc(C(F)(F)F)c1 (single isomer, unassigned) [Example 62] | ++ (NAUC “++” refers to an observed NAUC 170-140% of positive control) | ++ (NAUC “++” refers to an observed NAUC 170-140% of positive control) |
| O=C1C2C3CCCN3C3(C(=O)Nc4c(Cl)cc(Cl)cc43)C2C(=O)N1c1cc(Cl)cc(Cl)n1 (single isomer, unassigned) [Example 67] | +++ (NAUC “+++” refers to an observed NAUC >170% of positive control) | +++ (NAUC “+++” refers to an observed NAUC >170% of positive control) |
